The record followed here is doi:10.1101/2024.05.19.594723v1 (biorxiv, 2024).

Data set [1] can be described thus: in vitro. To be noted: monkey, vero cells.
Data set [2] deals with Sindbis virus SINV. Briefly: microbe, parasite or virus in culture. To be noted: BHK-21, read-out: SINV replicon assay IC50 (μM).
Data set [3] has as its target T1, CHIKV nsP1 (Chikungunya virus strain S27-African prototype, UniProt Q8JUX6).
T1 sequence (Q8JUX6 1-535): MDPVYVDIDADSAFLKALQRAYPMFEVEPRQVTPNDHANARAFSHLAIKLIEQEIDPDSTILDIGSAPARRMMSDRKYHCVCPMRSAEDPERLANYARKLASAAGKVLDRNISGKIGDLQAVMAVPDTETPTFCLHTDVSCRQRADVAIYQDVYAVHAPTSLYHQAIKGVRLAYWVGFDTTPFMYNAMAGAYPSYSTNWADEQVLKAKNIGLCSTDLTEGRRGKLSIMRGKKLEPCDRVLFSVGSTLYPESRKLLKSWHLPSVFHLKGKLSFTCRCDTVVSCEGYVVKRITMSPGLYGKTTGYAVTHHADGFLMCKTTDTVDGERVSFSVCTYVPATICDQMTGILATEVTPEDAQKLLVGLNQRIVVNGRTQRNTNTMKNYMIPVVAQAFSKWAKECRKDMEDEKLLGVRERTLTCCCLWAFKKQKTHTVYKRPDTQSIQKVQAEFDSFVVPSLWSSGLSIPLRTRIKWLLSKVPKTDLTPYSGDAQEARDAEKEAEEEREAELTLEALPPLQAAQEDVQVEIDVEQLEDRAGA
Format: binding.

The test system of data set [4] is Chikungunya virus CHIKV. Nature of the data set: microbe, parasite or virus in culture. To be noted: read-out: Plaque reduction assay IC50 (nM). On the technique in general: In a plaque reduction assay, fewer plaques than in the control indicate reduced infectivity or spread.
A short description of data set [5]: in vitro. Conditions: hamster, bhk-21 cells.
For data set [6], the target named is T1, CHIKV nsP1. Nature of the data set: biochemical.

Structures can show the parent of a compound that is named as a salt. Where two headings read alike, the source gives them in different places.

What is called CC50 is the concentration that lowers cell viability or growth by half. As a reminder, the IC50 is the concentration that gives 50% inhibition. As usually defined, the Kd is the free concentration of one partner at which half of the binding sites on the other are occupied at equilibrium, for simple one-to-one binding. For `CC1(C)CCC(CN2CCN(c3ccc(C(=O)NS(=O)(=O)c4ccc(NCC5CCOCC5)c([N+](=O)[O-])c4)c(Oc4cnc5[nH]ccc5c4)c3)CC2)=C(c2ccc(Cl)cc2)C1` [ABT199/Venetoclax], the CC50 at 24 h in data set [1] was 5 µM; in data set [5], more than 2.5 µM. The IC50 came out at 0.23 ± 0.04 µM in data set [2] and 3.46 ± 1.31 nM in data set [4]. The same molecule returned a Kd in data set [3] of approximately 161 µM.
With `COc1cc2c3cc1Oc1c(OC)c(OC)cc4c1[C@@H](Cc1cccc(c1)Oc1ccc(c(O)c1)C[C@@H]3N(C)CC2)N(C)CC4` [Berbamine Hydrochloride], the CC50 at 24 h in data set [1] is more than 25 µM; in data set [5], 46 µM. Further, the IC50 in data set [2] was 1.94 ± 0.97 µM; in data set [4], less than 100 nM. The molecule also registered a Kd in data set [6] of 5.45 ± 0.77 µM.
On to `Cc1ccc(C(=O)Nc2ccc(CN3CCN(C)CC3)c(C(F)(F)F)c2)cc1C#Cc1cnc2cccnn12` [Ponatinib], for which the values for the CC50 at 24 h in data set [1] and in data set [5] were 7.95 µM and 2.4 µM, respectively. Moreover, the IC50 in data set [2] was more than 1.25 µM; in data set [4], less than 3.9 nM. Also, in data set [3], the Kd was approximately 3.83 µM.
